Calls of active or inactive are those of the source. No cut-off for these calls is given here.
Legend:
Cannabinoid receptor 1 [1] = target: T1, Cannabinoid receptor 1 (Homo sapiens, UniProt P21554); assay: Displacement of [3H]- CP55940 from human CB1R expressed in CHO-K1 cells membrane by Cheng-Prusoff equation analysis; format: cell membranes, Cell membrane
Cannabinoid receptor 2 = Cannabinoid receptor 2 (Homo sapiens, UniProt P34972); assay: Displacement of [3H]- CP55940 from human CB2R expressed in CHO-K1 cells membrane by Cheng-Prusoff equation analysis; format: cell membranes, Cell membrane
Cannabinoid receptor 1 [2] = target: T1, Cannabinoid receptor 1; assay: Antagonist activity at human CB1R expressed in CHO-K1 cell membranes assessed as stimulation of [35S]-GTPgammaS binding by liquid scintillation counting method; format: functional, Cell membrane
[3] = Drug distribution in C57BL/6J mouse plasma at 10 mg/kg, ip incubated for 1 hrs by LC/MS/MS analysis; format: ADME, organism-based; conditions: in vivo
[4] = Drug distribution in C57BL/6J mouse liver at 10 mg/kg, ip incubated for 1 hrs by LC/MS/MS analysis; format: ADME, organism-based; conditions: in vivo
[5] = target: Nitric oxide synthase, inducible (Homo sapiens) (UniProt P35228); assay: Inhibition of recombinant iNOS (unknown origin) assessed as reduction in L-[3H]-citrulline level using L-[3H]-arginine as substrate at 10 uM by Enzymatic NOS activity assay
[6] = Ratio of drug level in C57BL/6J mouse brain to plasma at 10 mg/kg, ip incubated for 1 hrs by LC/MS/MS analysis; format: ADME, organism-based; conditions: read-out: BPR
[7] = Drug distribution in C57BL/6J mouse brain at 10 mg/kg, ip incubated for 1 hrs by LC/MS/MS analysis; format: ADME, organism-based; conditions: in vivo
[8] = Protein binding in mouse plasma assessed as […] at 5 uM and incubated for 4 hrs by LC-MS/MS analysis; format: ADME, cell-free; conditions: read-out: PPB
[9] = Stability in C57BL/6J mouse plasma assessed as half life at 3 mg/kg, ip by LC-MS/MS analysis; format: ADME, organism-based
Mus musculus [10] = assay: Anti-obesity activity in high fat diet-induced obese C57BL/6J mouse assessed as reduction in body weight at 10 mg/kg, ip measured every daily for 1 weeks; format: functional; conditions: 168 h
Mus musculus [11] = assay: Anti-obesity activity in high fat diet-induced obese C57BL/6J mouse assessed as reduction in food intake at 10 mg/kg, ip measured every daily for 1 weeks; format: functional, organism-based
Cannabinoid receptor 1 [12] = target: T1, Cannabinoid receptor 1; assay: Inverse agonist activity at human CB1R expressed in CHO-K1 cell membrane assessed as […] in [35S]GTPgammaS binding; format: functional, cell membranes
[13] = Protein binding in human plasma assessed as […] at 5 uM for 4 hrs by LC-MS/MS analysis; format: ADME, cell-free; conditions: read-out: PPB

Chain of Nitric oxide synthase, inducible (Homo sapiens) (P35228 whole entry): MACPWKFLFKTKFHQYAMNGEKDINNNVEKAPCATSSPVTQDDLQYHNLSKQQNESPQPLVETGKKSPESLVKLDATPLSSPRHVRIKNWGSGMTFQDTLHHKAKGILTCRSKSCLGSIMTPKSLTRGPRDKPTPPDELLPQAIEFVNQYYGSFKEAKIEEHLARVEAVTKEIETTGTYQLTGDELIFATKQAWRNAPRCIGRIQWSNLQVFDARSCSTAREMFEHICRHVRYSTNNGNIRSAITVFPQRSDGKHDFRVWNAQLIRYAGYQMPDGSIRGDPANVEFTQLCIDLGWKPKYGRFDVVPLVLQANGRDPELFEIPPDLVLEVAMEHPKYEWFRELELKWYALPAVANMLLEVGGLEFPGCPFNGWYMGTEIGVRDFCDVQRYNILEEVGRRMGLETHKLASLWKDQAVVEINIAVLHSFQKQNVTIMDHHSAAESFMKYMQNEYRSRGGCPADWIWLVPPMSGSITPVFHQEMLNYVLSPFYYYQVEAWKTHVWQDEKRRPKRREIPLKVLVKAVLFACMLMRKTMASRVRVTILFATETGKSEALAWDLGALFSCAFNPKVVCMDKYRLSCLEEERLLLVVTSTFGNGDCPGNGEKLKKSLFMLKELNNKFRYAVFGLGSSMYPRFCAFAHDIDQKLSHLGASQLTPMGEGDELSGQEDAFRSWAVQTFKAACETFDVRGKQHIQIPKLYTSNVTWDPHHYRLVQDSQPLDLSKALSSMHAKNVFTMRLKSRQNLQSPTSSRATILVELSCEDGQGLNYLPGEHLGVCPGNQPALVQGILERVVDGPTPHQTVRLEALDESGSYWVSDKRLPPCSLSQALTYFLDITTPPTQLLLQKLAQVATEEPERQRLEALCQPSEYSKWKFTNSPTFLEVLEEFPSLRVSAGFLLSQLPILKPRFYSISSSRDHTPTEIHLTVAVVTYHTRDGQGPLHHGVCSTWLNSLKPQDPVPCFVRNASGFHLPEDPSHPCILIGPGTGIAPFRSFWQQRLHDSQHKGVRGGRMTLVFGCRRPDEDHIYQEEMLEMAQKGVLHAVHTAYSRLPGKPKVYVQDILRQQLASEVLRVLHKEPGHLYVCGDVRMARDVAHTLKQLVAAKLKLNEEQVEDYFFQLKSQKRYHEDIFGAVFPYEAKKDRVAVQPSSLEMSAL
T1 sequence (P21554 whole entry): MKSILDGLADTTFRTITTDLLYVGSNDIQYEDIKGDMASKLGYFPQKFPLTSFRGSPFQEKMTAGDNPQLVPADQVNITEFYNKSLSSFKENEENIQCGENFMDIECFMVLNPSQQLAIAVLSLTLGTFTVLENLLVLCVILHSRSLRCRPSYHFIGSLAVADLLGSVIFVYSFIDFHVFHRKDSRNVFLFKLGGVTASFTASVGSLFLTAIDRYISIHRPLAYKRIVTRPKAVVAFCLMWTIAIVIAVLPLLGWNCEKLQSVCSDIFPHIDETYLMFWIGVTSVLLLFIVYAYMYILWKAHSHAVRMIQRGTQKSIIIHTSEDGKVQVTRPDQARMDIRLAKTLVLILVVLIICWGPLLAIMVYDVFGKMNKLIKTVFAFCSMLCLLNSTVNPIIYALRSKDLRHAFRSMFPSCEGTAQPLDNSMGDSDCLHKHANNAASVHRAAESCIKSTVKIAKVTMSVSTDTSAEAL
Chain of Cannabinoid receptor 2 (P34972 whole entry): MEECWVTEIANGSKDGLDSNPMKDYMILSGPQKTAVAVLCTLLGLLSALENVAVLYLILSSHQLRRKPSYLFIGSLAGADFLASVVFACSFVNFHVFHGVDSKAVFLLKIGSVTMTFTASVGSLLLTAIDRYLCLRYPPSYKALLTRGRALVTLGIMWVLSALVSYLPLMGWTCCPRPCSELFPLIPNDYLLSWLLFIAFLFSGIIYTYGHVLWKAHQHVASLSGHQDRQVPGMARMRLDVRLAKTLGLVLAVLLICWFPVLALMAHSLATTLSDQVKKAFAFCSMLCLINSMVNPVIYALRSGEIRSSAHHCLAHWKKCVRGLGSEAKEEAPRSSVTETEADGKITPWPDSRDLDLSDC

Structure (SMILES)	Ki (Cannabinoid receptor 1 [1]; read-out: Ki)	Ki (Cannabinoid receptor 2; read-out: Ki)	IC50 (Cannabinoid receptor 1 [2]; read-out: IC50)	also measured
CCN(CC)S(=O)(=O)/N=C(/N=C(/C)N)N1CC(c2ccccc2)C(c2ccc(Cl)cc2)=N1 (configuration not stated)	0.0059 µM	> 0.1 µM	0.0019 µM	Drug uptake [3]: Active; Drug uptake [4]: Active; inhibition [5]: Active; Kp at 1 h [6]: 0.025; Drug uptake [7]: Active
N/C(=N/C(=N/S(=O)(=O)N1CCCCC1)N1CC(c2ccccc2)C(c2ccc(Cl)cc2)=N1)c1ccc(Cl)cc1 (configuration not stated)	0.0078 µM	0.017 µM	0.006 µM	
CCN(CC)S(=O)(=O)/N=C(/N=C(\N)SC)N1CC(c2ccccc2)C(c2ccc(Cl)cc2)=N1 (configuration not stated)	0.013 µM	0.07 µM	0.388 µM	inhibition [5]: Active
C/C(N)=N/C(=N/S(=O)(=O)N1CCOCC1)N1CC(c2ccccc2)C(c2ccc(Cl)cc2)=N1 (configuration not stated)	0.031 µM	> 1 µM	0.063 µM	
CS/C(N)=N/C(=N/S(=O)(=O)N1CCCC1)N1CC(c2ccccc2)C(c2ccc(Cl)cc2)=N1 (configuration not stated)	0.023 µM	> 1 µM	0.462 µM	inhibition [5]: Active
CCN(CC)S(=O)(=O)/N=C(/N=C(\N)C(C)(C)C)N1CC(c2ccccc2)C(c2ccc(Cl)cc2)=N1 (configuration not stated)	0.01 µM	> 1 µM	0.375 µM	inhibition [5]: Active
C/C(N)=N\C(=N\S(=O)(=O)N1CCCCC1)N1C[C@@H](c2ccccc2)C(c2ccc(Cl)cc2)=N1	0.61 µM	> 1 µM		IC50 (Cannabinoid receptor 1 [2]; cho-k1): Not Active
C/C(N)=N/C(=N/S(=O)(=O)N1CCC(C(F)(F)F)CC1)N1CC(c2ccccc2)C(c2ccc(Cl)cc2)=N1 (configuration not stated)	0.0039 µM	> 0.1 µM	0.273 µM	
N/C(=N\C(=N\S(=O)(=O)N1CCC(C(F)(F)F)CC1)N1CC(c2ccccc2)C(c2ccc(Cl)cc2)=N1)c1ccc(F)cc1 (configuration not stated)	0.0198 µM	0.014 µM	0.00277 µM	
N/C(=N\C(=N\S(=O)(=O)N1CCOCC1)N1CC(c2ccccc2)C(c2ccc(Cl)cc2)=N1)c1ccc(F)cc1 (configuration not stated)	0.0399 µM	> 1 µM	0.019 µM	
CS/C(N)=N\C(=N\S(=O)(=O)N1CCC(F)(F)CC1)N1CC(c2ccccc2)C(c2ccc(Cl)cc2)=N1 (configuration not stated)	0.014 µM	> 0.1 µM	0.127 µM	
C/C(N)=N\C(=N\S(=O)(=O)N1CCCCC1)N1CC(c2ccccc2)C(c2ccc(Cl)cc2)=N1 (configuration not stated)	0.003 µM	> 0.1 µM	0.057 µM	Drug uptake [3]: Active; Drug uptake [4]: Active; Kp at 1 h [6]: 0.04; Drug uptake [7]: Active
CS/C(N)=N/C(=N/S(=O)(=O)N1CCC(C(F)(F)F)CC1)N1CC(c2ccccc2)C(c2ccc(Cl)cc2)=N1 (configuration not stated)	0.0024 µM	> 0.1 µM	0.0036 µM	Drug uptake [3]: Active; Drug uptake [4]: Active; Kp at 1 h [6]: 0.036; Drug uptake [7]: Active
CS/C(N)=N/C(=N/S(=O)(=O)N1CCC(C(F)(F)F)CC1)N1C[C@H](c2ccccc2)C(c2ccc(Cl)cc2)=N1	0.0007 µM	0.334 µM	0.002 µM	fraction unbound at 4 h, 5 µM [8]: ≤ 0.006; half-life [9]: < 2 h; inhibition in vivo at 10 mg/kg (Mus musculus [10]): 8%; Activity (Mus musculus [11]): Active; IC50 (Cannabinoid receptor 1 [12]): 0.0016 µM; fraction unbound at 4 h, 5 µM [13]: ≤ 0.006
C/C(N)=N/C(=N/S(=O)(=O)N1CCCC1)N1CC(c2ccccc2)C(c2ccc(Cl)cc2)=N1 (configuration not stated)	0.0074 µM	> 1 µM	0.137 µM	inhibition [5]: Active
CCN(CC)S(=O)(=O)/N=C(/N=C(/C)N)N1C[C@@H](c2ccccc2)C(c2ccc(Cl)cc2)=N1				Ki (Cannabinoid receptor 1 [1]; cho-k1): Not Active; Ki (Cannabinoid receptor 2; cho-k1): Not Active; IC50 (Cannabinoid receptor 1 [2]; cho-k1): Not Active
C/C(N)=N\C(=N\S(=O)(=O)N1CCC(F)(F)CC1)N1CC(c2ccccc2)C(c2ccc(Cl)cc2)=N1 (configuration not stated)	0.0034 µM	> 0.1 µM	0.015 µM	
N/C(=N\C(=N\S(=O)(=O)N1CCC(C(F)(F)F)CC1)N1CC(c2ccccc2)C(c2ccc(Cl)cc2)=N1)c1ccc(Cl)cc1 (configuration not stated)	0.0055 µM	0.02 µM	0.0054 µM	

— ChEMBL document CHEMBL5046268, “Synthesis, Biological Evaluation, and Molecular Modeling Studies of 3,4-Diarylpyrazoline Series of Compounds as Potent, Nonbrain Penetrant Antagonists of Cannabinoid-1 (CB1R) Receptor with Reduced Lipophilicity” (J Med Chem, 2022)
